Measurements as given in patent publication US20260158017A1, “KIF18A INHIBITOR” (WIGEN BIOMEDICINE TECHNOLOGY (SHANGHAI) CO., LTD., priority 2021, published 2026).

Biological target: T1, Recombinant human KIF18A (1-467His-tagged) protein (Homo sapiens, UniProt Q8NI77)
T1 construct: Recombinant human KIF18A (1-467His-tagged) protein; His; made in house
Assay: KIF18A enzyme assay (microtubule-stimulated ATPase activity, ADP-Glo)
Type: biochemical
Settings: 30 nM KIF18A, 75 μM ATP, 30 μg/mL pig microtubules; read-out: Inhibitory activity against KIF18A IC50
Outline: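 Buffer 15 mM Tris pH 7.5, 10 mM MgCl2, 0.01% Pluronic F-68, 1 μM paclitaxel, 30 μg/mL pig microtubules; reactions at room temperature. IC50 from inhibition relative to DMSO.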

T1 sequence (Q8NI77 1-467): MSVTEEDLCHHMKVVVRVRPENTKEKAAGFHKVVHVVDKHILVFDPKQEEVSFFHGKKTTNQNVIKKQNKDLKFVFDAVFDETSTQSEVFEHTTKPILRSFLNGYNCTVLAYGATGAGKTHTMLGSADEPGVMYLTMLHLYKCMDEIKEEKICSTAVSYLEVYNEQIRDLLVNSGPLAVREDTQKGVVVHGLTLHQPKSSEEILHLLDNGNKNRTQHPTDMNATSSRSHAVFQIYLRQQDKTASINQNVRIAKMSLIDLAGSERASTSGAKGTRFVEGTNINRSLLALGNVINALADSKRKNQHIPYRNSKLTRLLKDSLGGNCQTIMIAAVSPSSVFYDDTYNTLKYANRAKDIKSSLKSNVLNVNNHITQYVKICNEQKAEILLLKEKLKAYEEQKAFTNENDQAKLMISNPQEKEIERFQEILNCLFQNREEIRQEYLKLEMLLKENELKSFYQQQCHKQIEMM
T1 sequence (P02550 whole entry partner): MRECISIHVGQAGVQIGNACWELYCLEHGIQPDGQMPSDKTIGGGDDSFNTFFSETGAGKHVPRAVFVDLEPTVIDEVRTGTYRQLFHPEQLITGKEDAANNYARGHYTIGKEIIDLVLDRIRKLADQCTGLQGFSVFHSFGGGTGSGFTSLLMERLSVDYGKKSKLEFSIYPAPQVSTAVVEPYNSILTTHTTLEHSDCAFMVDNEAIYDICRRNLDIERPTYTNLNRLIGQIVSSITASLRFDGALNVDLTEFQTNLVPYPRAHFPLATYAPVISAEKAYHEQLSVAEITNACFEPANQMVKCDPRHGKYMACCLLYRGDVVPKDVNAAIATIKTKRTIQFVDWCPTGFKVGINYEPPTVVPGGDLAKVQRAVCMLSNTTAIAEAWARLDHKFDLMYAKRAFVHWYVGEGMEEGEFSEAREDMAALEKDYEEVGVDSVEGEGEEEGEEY
T1 sequence (P02554 whole entry partner): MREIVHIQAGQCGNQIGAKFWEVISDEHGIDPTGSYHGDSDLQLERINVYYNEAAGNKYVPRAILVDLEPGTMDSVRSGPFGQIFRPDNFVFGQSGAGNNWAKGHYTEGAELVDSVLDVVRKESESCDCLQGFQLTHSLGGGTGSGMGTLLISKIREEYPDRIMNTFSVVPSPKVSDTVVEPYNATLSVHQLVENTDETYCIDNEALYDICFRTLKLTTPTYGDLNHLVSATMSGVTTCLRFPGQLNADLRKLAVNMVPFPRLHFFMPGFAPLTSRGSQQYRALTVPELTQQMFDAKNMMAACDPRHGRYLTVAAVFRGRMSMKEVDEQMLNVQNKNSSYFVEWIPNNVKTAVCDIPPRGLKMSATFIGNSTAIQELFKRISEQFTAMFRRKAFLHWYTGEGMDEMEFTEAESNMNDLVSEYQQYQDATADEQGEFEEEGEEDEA

`O=C(Nc1ccc(OCF)c(N2CCC(F)CC2)c1)c1cnc(S(=O)(=O)NCCO)cc1N1CCC2(CC1)CC2` [Compound 473] and `O=C(Nc1ccc(OCF)c(N2CCOCC2)c1)c1cnc(S(=O)(=O)NCCO)cc1N1CCC2(CC1)CC2` [Compound 476] cannot be ordered by IC50: ≤ 100 nM for the first, ≤ 100 nM for the second.

`O=C(Nc1ccc(OCF)c(N2CC3CC3C2)c1)c1cnc(S(=O)(=O)NCCO)cc1N1CCC2(CC1)CC2` (stereo not shown) [Compound 474] and `O=C(Nc1ccc(OCF)c(N2CC3CC3C2)n1)c1cnc(S(=O)(=O)NCCO)cc1N1CCC2(CC1)CC2` (stereo not shown) [Compound 506] cannot be ordered by IC50: ≤ 100 nM for the first, ≤ 100 nM for the second.

`CC(C)(CO)Nc1cc(NC(=O)c2cnc(S(=O)(=O)NCCO)cc2N2CCC3(CC2)CC3)ccc1OCF` [Compound 475] and `CC(C)(CO)Nc1nc(C(=O)Nc2cnc(S(=O)(=O)NCCO)cc2N2CCC3(CC2)CC3)ccc1OCF` [Compound 507] cannot be ordered by IC50: ≤ 100 nM for the first, ≤ 100 nM for the second.

`C[C@@H](CO)NS(=O)(=O)c1cc(N2CCC3(CC2)CC3)c(C(=O)Nc2ccc(OCF)c(N3CCC(F)(F)CC3)c2)cn1` [Compound 477] and `C[C@H](CO)NS(=O)(=O)c1cc(N2CCC3(CC2)CC3)c(C(=O)Nc2ccc(OCF)c(N3CCC(F)(F)CC3)c2)cn1` [Compound 478] cannot be ordered by IC50: ≤ 100 nM for the first, ≤ 100 nM for the second.

`C[C@@H]1CN(c2cc(NC(=O)c3cnc(S(=O)(=O)N[C@@H](C)CO)cc3N3CCC4(CC3)CC4)ccc2OCF)CCO1` [Compound 479] and `C[C@H](CO)NS(=O)(=O)c1cc(N2CCC3(CC2)CC3)c(C(=O)Nc2ccc(OCF)c(N3CCO[C@H](C)C3)c2)cn1` [Compound 480] cannot be ordered by IC50: ≤ 100 nM for the first, ≤ 100 nM for the second.

`O=C(Nc1ccc(OCF)c(N2CCC(F)(F)CC2)n1)c1cnc(NS(=O)(=O)CCO)cc1N1CCC2(CC1)CC2` [Compound 481] and `O=C(Nc1ccc(OCF)c(N2CC(F)(F)C2)n1)c1cnc(NS(=O)(=O)CCO)cc1N1CCC2(CC1)CC2` [Compound 484] cannot be ordered by IC50: ≤ 100 nM for the first, ≤ 100 nM for the second.

`C[C@@H]1CN(c2nc(NC(=O)c3cnc(NS(=O)(=O)CCO)cc3N3CCC4(CC3)CC4)ccc2OCF)CCO1` [Compound 482] and `C[C@H]1CN(c2nc(NC(=O)c3cnc(NS(=O)(=O)CCO)cc3N3CCC4(CC3)CC4)ccc2OCF)CCO1` [Compound 483] cannot be ordered by IC50: ≤ 100 nM for the first, ≤ 100 nM for the second.

`O=C(Nc1ccc(OCF)c(OCCC(F)(F)F)n1)c1cnc(NS(=O)(=O)CCO)cc1N1CCC2(CC1)CC2` [Compound 485] and `O=C(Nc1ccc(OCF)c(OCCC(F)(F)F)n1)c1cnc(S(=O)(=O)NCCO)cc1N1CCC2(CC1)CC2` [Compound 501] cannot be ordered by IC50: ≤ 100 nM for the first, ≤ 100 nM for the second.

`O=C(Nc1ccc(OCF)c(N2CCC3(CC3)C2)n1)c1cnc(NS(=O)(=O)CCO)cc1N1CCC2(CC1)CC2` [Compound 486] and `CC1(F)CCN(c2nc(NC(=O)c3cnc(NS(=O)(=O)CCO)cc3N3CCC4(CC3)CC4)ccc2OCF)C1` (stereo not shown) [Compound 488] cannot be ordered by IC50: ≤ 100 nM for the first, ≤ 100 nM for the second.

`O=C(Nc1ccc(OCF)c(OC2CCC2)n1)c1cnc(NS(=O)(=O)CCO)cc1N1CCC2(CC1)CC2` [Compound 487] and `O=C(Nc1ccc(OCF)c(OC2CCC2)n1)c1cnc(S(=O)(=O)NCCO)cc1N1CCC2(CC1)CC2` [Compound 503] cannot be ordered by IC50: ≤ 100 nM for the first, ≤ 100 nM for the second.

`O=C(Nc1ccc(OCF)c(N2CCC(F)CC2)n1)c1cnc(NS(=O)(=O)CCO)cc1N1CCC2(CC1)CC2` [Compound 489] and `O=C(Nc1ccc(OCF)c(N2CCOCC2)n1)c1cnc(NS(=O)(=O)CCO)cc1N1CCC2(CC1)CC2` [Compound 492] cannot be ordered by IC50: ≤ 100 nM for the first, ≤ 100 nM for the second.

`O=C(Nc1ccc(OCF)c(N2CC3CC3C2)n1)c1cnc(NS(=O)(=O)CCO)cc1N1CCC2(CC1)CC2` (stereo not shown) [Compound 490] and `C[C@@H]1CN(c2nc(NC(=O)c3cnc(NS(=O)(=O)[C@@H](C)CO)cc3N3CCC4(CC3)CC4)ccc2OCF)CCO1` [Compound 495] cannot be ordered by IC50: ≤ 100 nM for the first, ≤ 100 nM for the second.

`CC(C)(CO)Nc1nc(NC(=O)c2cnc(NS(=O)(=O)CCO)cc2N2CCC3(CC2)CC3)ccc1OCF` [Compound 491] and `CC(C)(CO)Nc1cc(C(=O)Nc2ccc(NS(=O)(=O)CCO)cc2N2CCC3(CC2)CC3)ccc1OCF` [Compound 523] cannot be ordered by IC50: ≤ 100 nM for the first, ≤ 100 nM for the second.

`C[C@@H](CO)S(=O)(=O)Nc1cc(N2CCC3(CC2)CC3)c(C(=O)Nc2ccc(OCF)c(N3CCC(F)(F)CC3)n2)cn1` [Compound 493] and `C[C@H](CO)S(=O)(=O)Nc1cc(N2CCC3(CC2)CC3)c(C(=O)Nc2ccc(OCF)c(N3CCC(F)(F)CC3)n2)cn1` [Compound 494] cannot be ordered by IC50: ≤ 100 nM for the first, ≤ 100 nM for the second.

`C[C@@H]1CN(c2nc(NC(=O)c3cnc(NS(=O)(=O)[C@H](C)CO)cc3N3CCC4(CC3)CC4)ccc2OCF)CCO1` [Compound 496] and `C[C@@H]1CN(c2nc(NC(=O)c3cnc(S(=O)(=O)N[C@@H](C)CO)cc3N3CCC4(CC3)CC4)ccc2OCF)CCO1` [Compound 511] cannot be ordered by IC50: ≤ 100 nM for the first, ≤ 100 nM for the second.

`O=C(Nc1ccc(OCF)c(N2CCC(F)(F)CC2)n1)c1cnc(S(=O)(=O)NCCO)cc1N1CCC2(CC1)CC2` [Compound 497] and `O=C(Nc1ccc(OCF)c(N2CC(F)(F)C2)n1)c1cnc(S(=O)(=O)NCCO)cc1N1CCC2(CC1)CC2` [Compound 500] cannot be ordered by IC50: ≤ 100 nM for the first, ≤ 100 nM for the second.

`C[C@@H]1CN(c2nc(NC(=O)c3cnc(S(=O)(=O)NCCO)cc3N3CCC4(CC3)CC4)ccc2OCF)CCO1` [Compound 498] and `C[C@H]1CN(c2nc(NC(=O)c3cnc(S(=O)(=O)NCCO)cc3N3CCC4(CC3)CC4)ccc2OCF)CCO1` [Compound 499] cannot be ordered by IC50: ≤ 100 nM for the first, ≤ 100 nM for the second.

`O=C(Nc1ccc(OCF)c(N2CCC3(CC3)C2)n1)c1cnc(S(=O)(=O)NCCO)cc1N1CCC2(CC1)CC2` [Compound 502] and `CC1(F)CCN(c2nc(NC(=O)c3cnc(S(=O)(=O)NCCO)cc3N3CCC4(CC3)CC4)ccc2OCF)C1` (stereo not shown) [Compound 504] cannot be ordered by IC50: ≤ 100 nM for the first, ≤ 100 nM for the second.

`O=C(Nc1ccc(OCF)c(N2CCC(F)CC2)n1)c1cnc(S(=O)(=O)NCCO)cc1N1CCC2(CC1)CC2` [Compound 505] and `O=C(Nc1ccc(OCF)c(N2CCOCC2)n1)c1cnc(S(=O)(=O)NCCO)cc1N1CCC2(CC1)CC2` [Compound 508] cannot be ordered by IC50: ≤ 100 nM for the first, ≤ 100 nM for the second.

`C[C@@H](CO)NS(=O)(=O)c1cc(N2CCC3(CC2)CC3)c(C(=O)Nc2ccc(OCF)c(N3CCC(F)(F)CC3)n2)cn1` [Compound 509] and `C[C@H](CO)NS(=O)(=O)c1cc(N2CCC3(CC2)CC3)c(C(=O)Nc2ccc(OCF)c(N3CCC(F)(F)CC3)n2)cn1` [Compound 510] cannot be ordered by IC50: ≤ 100 nM for the first, ≤ 100 nM for the second.

`C[C@H](CO)NS(=O)(=O)c1cc(N2CCC3(CC2)CC3)c(C(=O)Nc2ccc(OCF)c(N3CCO[C@H](C)C3)n2)cn1` [Compound 512] and `C[C@@H]1CN(c2cc(C(=O)Nc3ccc(NS(=O)(=O)[C@@H](C)CO)cc3N3CCC4(CC3)CC4)ccc2OCF)CCO1` [Compound 527] cannot be ordered by IC50: ≤ 100 nM for the first, ≤ 100 nM for the second.

`O=C(Nc1ccc(NS(=O)(=O)CCO)cc1N1CCC2(CC1)CC2)c1ccc(OCF)c(N2CCC(F)(F)CC2)c1` [Compound 513] and `O=C(Nc1ccc(NS(=O)(=O)CCO)cc1N1CCC2(CC1)CC2)c1ccc(OCF)c(N2CC(F)(F)C2)c1` [Compound 516] cannot be ordered by IC50: ≤ 100 nM for the first, ≤ 100 nM for the second.

`C[C@@H]1CN(c2cc(C(=O)Nc3ccc(NS(=O)(=O)CCO)cc3N3CCC4(CC3)CC4)ccc2OCF)CCO1` [Compound 514] and `C[C@H]1CN(c2cc(C(=O)Nc3ccc(NS(=O)(=O)CCO)cc3N3CCC4(CC3)CC4)ccc2OCF)CCO1` [Compound 515] cannot be ordered by IC50: ≤ 100 nM for the first, ≤ 100 nM for the second.

`O=C(Nc1ccc(NS(=O)(=O)CCO)cc1N1CCC2(CC1)CC2)c1ccc(OCF)c(OCCC(F)(F)F)c1` [Compound 517] and `O=C(Nc1ccc(S(=O)(=O)NCCO)cc1N1CCC2(CC1)CC2)c1ccc(OCF)c(OCCC(F)(F)F)c1` [Compound 533] cannot be ordered by IC50: ≤ 100 nM for the first, 100 to 500 nM for the second.

`O=C(Nc1ccc(NS(=O)(=O)CCO)cc1N1CCC2(CC1)CC2)c1ccc(OCF)c(N2CCC3(CC3)C2)c1` [Compound 518] and `CC1(F)CCN(c2cc(C(=O)Nc3ccc(NS(=O)(=O)CCO)cc3N3CCC4(CC3)CC4)ccc2OCF)C1` (stereo not shown) [Compound 520] cannot be ordered by IC50: ≤ 100 nM for the first, ≤ 100 nM for the second.

`O=C(Nc1ccc(NS(=O)(=O)CCO)cc1N1CCC2(CC1)CC2)c1ccc(OCF)c(OC2CCC2)c1` [Compound 519] and `O=C(Nc1ccc(S(=O)(=O)NCCO)cc1N1CCC2(CC1)CC2)c1ccc(OCF)c(OC2CCC2)c1` [Compound 535] cannot be ordered by IC50: ≤ 100 nM for the first, 100 to 500 nM for the second.

`O=C(Nc1ccc(NS(=O)(=O)CCO)cc1N1CCC2(CC1)CC2)c1ccc(OCF)c(N2CCC(F)CC2)c1` [Compound 521] and `O=C(Nc1ccc(NS(=O)(=O)CCO)cc1N1CCC2(CC1)CC2)c1ccc(OCF)c(N2CCOCC2)c1` [Compound 524] cannot be ordered by IC50: ≤ 100 nM for the first, ≤ 100 nM for the second.

`O=C(Nc1ccc(NS(=O)(=O)CCO)cc1N1CCC2(CC1)CC2)c1ccc(OCF)c(N2CC3CC3C2)c1` (stereo not shown) [Compound 522] and `C[C@@H]1CN(c2cc(C(=O)Nc3ccc(NS(=O)(=O)[C@H](C)CO)cc3N3CCC4(CC3)CC4)ccc2OCF)CCO1` [Compound 528] cannot be ordered by IC50: ≤ 100 nM for the first, ≤ 100 nM for the second.

`C[C@@H](CO)S(=O)(=O)Nc1ccc(NC(=O)c2ccc(OCF)c(N3CCC(F)(F)CC3)c2)c(N2CCC3(CC2)CC3)c1` [Compound 525] and `C[C@H](CO)S(=O)(=O)Nc1ccc(NC(=O)c2ccc(OCF)c(N3CCC(F)(F)CC3)c2)c(N2CCC3(CC2)CC3)c1` [Compound 526] cannot be ordered by IC50: ≤ 100 nM for the first, ≤ 100 nM for the second.

`O=C(Nc1ccc(S(=O)(=O)NCCO)cc1N1CCC2(CC1)CC2)c1ccc(OCF)c(N2CCC(F)(F)CC2)c1` [Compound 529] and `O=C(Nc1ccc(S(=O)(=O)NCCO)cc1N1CCC2(CC1)CC2)c1ccc(OCF)c(N2CC(F)(F)C2)c1` [Compound 532] fall in the same range of IC50: 100 to 500 nM for the first, 100 to 500 nM for the second.

`C[C@@H]1CN(c2cc(C(=O)Nc3ccc(S(=O)(=O)NCCO)cc3N3CCC4(CC3)CC4)ccc2OCF)CCO1` [Compound 530] and `C[C@H]1CN(c2cc(C(=O)Nc3ccc(S(=O)(=O)NCCO)cc3N3CCC4(CC3)CC4)ccc2OCF)CCO1` [Compound 531] fall in the same range of IC50: 100 to 500 nM for the first, 100 to 500 nM for the second.

`O=C(Nc1ccc(S(=O)(=O)NCCO)cc1N1CCC2(CC1)CC2)c1ccc(OCF)c(N2CCC3(CC3)C2)c1` [Compound 534] and `CC1(F)CCN(c2cc(C(=O)Nc3ccc(S(=O)(=O)NCCO)cc3N3CCC4(CC3)CC4)ccc2OCF)C1` (stereo not shown) [Compound 536] fall in the same range of IC50: 100 to 500 nM for the first, 100 to 500 nM for the second.
